Measured values published in article PMC6158189, “A pharmacological probe identifies cystathionine β-synthase as a new negative regulator for ferroptosis” (Cell Death & Disease, 2018).
“And” between values parts separate entries of the source, which are not always exact repeats. Equal entries are not always repeated. Where two headings read alike, the source gives them in different places.

Key:
[1] = biological target: T1, hCBS-413 (Homo sapiens, UniProt P35520); assay: purified hCBS-413 enzyme assay (192-tandem-well plate, H2S detected with DTNB); type: biochemical
T1 construct: hCBS-413 (a C-terminal truncated hCBS 1–413); GST (N); made in house; host or cells: E. coli BL21
T1 sequence (P35520 1-413): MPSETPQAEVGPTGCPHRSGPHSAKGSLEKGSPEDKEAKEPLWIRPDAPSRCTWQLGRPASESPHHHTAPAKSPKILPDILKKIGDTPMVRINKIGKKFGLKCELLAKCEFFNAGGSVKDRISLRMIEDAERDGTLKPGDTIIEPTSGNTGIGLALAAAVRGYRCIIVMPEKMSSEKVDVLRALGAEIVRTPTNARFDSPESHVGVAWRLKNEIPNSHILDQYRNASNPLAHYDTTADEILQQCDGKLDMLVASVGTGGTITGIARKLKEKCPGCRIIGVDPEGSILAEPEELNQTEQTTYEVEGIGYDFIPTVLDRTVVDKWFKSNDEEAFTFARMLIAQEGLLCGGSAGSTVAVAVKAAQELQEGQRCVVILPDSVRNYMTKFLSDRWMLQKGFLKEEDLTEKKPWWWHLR
Procedure: Fig. 1 CH004 inhibits the activity of hCBS in the in vitro purified enzyme assays under different assay conditions. a A scheme for the cascade enzymatic reactions catalyzed by CBS or CSE. Cth, cystathionine. b, c Inhibitory effects of CH004 on the activity of hCBS-413 (b) or hCSE (c). The enzyme activities were monitored for various concentrations of CH004 under the standard conditions (50 mM Tris-HCl, pH 8.6; “Materials and Methods” section). The result is shown as percentages of the control (DMSO, 100%). The data are shown as means ± SDS (n = 3). d The dose-dependent inhibition of CH004 on the hCBS-413 activity was measured by the tandem-well-based assay under the standard conditions except using 50 mM Hepes buffer (pH 7.4) instead of 50 mM Tris-HCl (pH 8.6). Means ± SDs (n = 3). e The dose-dependent inhibition of CH004 on the CBS activity measured by methylene blue method. The CBS enzyme assay was performed with a 50 μl assay buffer in an Eppendorf tube under the standard assay conditions for the 192-tandem-well based assay, i.e., 50 μl 50 mM Tris-HCl buffer (pH 8.6) containing 150 nM hCBS-FL, 200 μM S-adenosyl-L-methionine, 4 mM L-Cys and 4 mM D,L-Hcys, in the presence of 0 (DMSO control), 0.01, 0.5, 1, 5, 10 or 100 μM CH004. After 80 min, the assay was stopped by added 10 μL 10% ZnAC and the generated H2S was quantified by N,N-dimethyl-p-phenylenediamine to give an absorbance at 670 nm (for details, see Materials and Methods section; ref. [53]).
The IC50 values of CH004 for hCBS-413, hCBS-413 mutants, hCBS-FL, hCSE or hDDC were determined according to the standard assay conditions otherwise indicated.
Table S2. Inhibitory effects of CH004 on hCBS WT and mutants.

[2] = system: HepG2, HEK293T, Huh7, H22, Panc-28, HCT116 and MDA-MB-231 cells; assay: cell proliferation, all tested cell lines; type: cell-based; conditions: 24 h; read-out: IC50 range, proliferation of all tested cells
Procedure: With a bioactive and selective inhibitor of CBS in hand, we examined the effect of CH004 on the proliferation of HepG2 and HEK293T cells as well as hepatocellular carcinoma Huh7 and H22, pancreatic cancer Panc-28, colon cancer HCT116 and breast cancer MDA-MB-231 cells. […] HCT116 was the most affected cell line with an IC50 of 4 μM amongst tested cell lines (Fig. 4a and Supplementary Figure 11). […] To confirm that CH004-mediated inhibitory effects are due to the specific inhibition of hCBS, we generated hCBS-overexpressed (293T-CBS WT) stable cell lines by transducing HEK293T cells with lentivirus carrying hCBS WT genes. […] In supporting the pros of CBS on the proliferation, knock-down of CBS indeed substantially retards cell proliferation in HEK293T cells (Supplementary Figure 12c, d). […] Importantly, CH004 could largely retard the colony formation of HepG2 cells with an IC50 of ~8 μM (Supplementary Figure 12e–g).
To measure cell viability and cytotoxicity, HepG2, HEK293T, Huh-7, H22, Panc-28, HCT116 and MDA-MB-231 cells were seeded at a density of ~ 2 × 10^4 cells per well in 96-well plates (Coring, NY, USA) for one day, followed by incubation with DMSO or various concentrations of tested compound for indicated times. […]

Question: How did the IC50 ([1]; 150 nM purified CBS, 4 mM Hcys, 4 mM Cys, 50 mM Tris-HCl pH 8.6 (Table S2), read-out: IC50 hCBS WT) turn out when `Cn1nc(Cc2ccccc2)nc2c(=O)n(C)c(=O)nc1-2` [CH004, 3-benzyl-1,6-dimethylpyrimido[5,4-e][1,2,4]triazine-5,7(1H,6H)-dione] was run?
Answer: 1200 ± 50 nM

Question: What about the “IC50 fold to WT, hCBS WT” value ([1]; Table S2) of the same molecule?
Answer: 1

Question: What about the IC50 ([1]; hCBS-413, 50 mM Hepes buffer pH 7.4 instead of Tris-HCl pH 8.6, read-out: IC50 on hCBS (Hepes; pH 7.4)) of the same molecule?
Answer: 1100 ± 170 nM

Question: And the IC50 ([1]; standard conditions, 50 mM Tris-HCl pH 8.6, read-out: IC50 on hCBS-413)?
Answer: ~1000 nM and 1000 nM

Question: What about the IC50 [2] of the same molecule?
Answer: 4000 to 25000 nM
